Calls of active or inactive are those of the source.
Assays:
[1] = biological target: T1, Orexin receptor type 2 (Homo sapiens) (UniProt O43614); assay: Agonist activity at human orexin 2 receptor expressed in CHO cells assessed as increase in calcium mobilization incubated for 120 secs by Fluo-4AM dye based fluorescence assay; assay type: functional, cell-based; conditions: time 120.0 sec
T1 sequence (whole entry): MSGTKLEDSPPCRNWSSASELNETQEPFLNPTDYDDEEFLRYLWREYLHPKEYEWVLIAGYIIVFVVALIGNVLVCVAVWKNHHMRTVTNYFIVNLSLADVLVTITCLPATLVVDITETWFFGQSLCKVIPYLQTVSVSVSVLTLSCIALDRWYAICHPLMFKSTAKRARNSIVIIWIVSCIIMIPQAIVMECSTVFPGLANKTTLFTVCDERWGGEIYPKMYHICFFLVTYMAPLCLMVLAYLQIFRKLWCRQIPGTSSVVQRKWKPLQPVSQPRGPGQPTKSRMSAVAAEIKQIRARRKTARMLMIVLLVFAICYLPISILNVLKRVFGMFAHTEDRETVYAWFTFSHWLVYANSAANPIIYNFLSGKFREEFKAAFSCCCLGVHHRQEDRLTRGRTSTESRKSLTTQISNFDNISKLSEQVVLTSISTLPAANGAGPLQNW

[2] = biological target: T2, Orexin/Hypocretin receptor type 1 (Homo sapiens, UniProt O43613); assay: (§1) Displacement of [3H]-[…] from human orexin 1 receptor expressed in CHO cells incubated for 2 hrs by whole cell radioligand binding assay; assay type: cell-based
T2 sequence (O43613 whole entry): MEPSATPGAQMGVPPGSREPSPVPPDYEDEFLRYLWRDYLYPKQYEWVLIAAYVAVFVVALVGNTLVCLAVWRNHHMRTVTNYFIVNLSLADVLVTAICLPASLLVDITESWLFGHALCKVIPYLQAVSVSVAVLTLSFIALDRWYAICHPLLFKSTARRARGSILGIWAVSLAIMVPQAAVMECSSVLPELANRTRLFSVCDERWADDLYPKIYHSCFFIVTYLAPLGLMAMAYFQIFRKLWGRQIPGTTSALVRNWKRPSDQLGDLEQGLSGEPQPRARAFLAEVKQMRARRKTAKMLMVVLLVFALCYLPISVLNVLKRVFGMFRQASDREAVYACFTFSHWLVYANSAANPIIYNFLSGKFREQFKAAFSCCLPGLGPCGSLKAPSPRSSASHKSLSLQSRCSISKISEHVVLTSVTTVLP

[3] = (§2) Displacement of [3H]-EMPA from human orexin 2 receptor expressed in CHO cells incubated for 2 hrs by whole cell radioligand binding assay; assay type: cell-based
[4] = biological target: T3, Orexin/Hypocretin receptor type 1 (Homo sapiens) (UniProt O43613); conditions: CHO, time 120.0 sec
T3 sequence (whole entry): T2 sequence (O43613 whole entry)
Description: Agonist activity at human orexin 1 receptor expressed in CHO cells assessed as increase in calcium mobilization incubated for 120 secs by Fluo-4AM dye based fluorescence assay

[5] = organism: Homo sapiens; assay: Displacement of [3H]-EMPA from human orexin 2 receptor expressed in CHO cells incubated for 2 hrs by whole cell radioligand binding assay relative to control; assay type: cell-based; design: concentration or dose not given beside the values; conditions: dose or concentration not given here
[6] = biological target: T3, Orexin/Hypocretin receptor type 1 (Homo sapiens); assay: as §1; assay type: cell-based
[7] = organism: Homo sapiens; assay: as §2; assay type: cell-based

In the case of `O=C(c1sc2cccc(F)c2c1Cl)N1CCN(Cc2ccco2)CC1`, the pEC50 [1] is reported as “inactive”.

For `Cc1ccc(N2CCCN(C(=O)c3cn(C)c4ccccc34)CC2)nn1`, the IC50 [2] was greater than 100 µM and the pEC50 [1] was “inactive”.

In the case of `Cc1ccccc1OC[C@@H]1CCCN(C(=O)CCc2nc(-c3ccccn3)no2)C1`, the Ki [2] is reported as 15.1 µM and the pEC50 [1] is reported as “inactive”.

For `C[C@H](Sc1nc(-c2ccco2)nc2ccccc12)C(=O)N1CCc2ccccc2C1`, the Ki [2] was 8.91 µM, the pKi [3] was 5.5 and the pEC50 [1] was “inactive”. For the same molecule, the pEC50 [4] was “inactive”.

For `Cc1ccc(-c2nc(CC(=O)N(C)Cc3c(F)cccc3Cl)cs2)o1`, the Ki [2] was 11.7 µM, the pKi [3] was 5.55 and the pEC50 [1] was “inactive”. The pEC50 [4] was “inactive”.

In the case of `Cc1ccc(C(=O)[C@H](C)Oc2cccc(N3C(=O)[C@H]4[C@H](C)C=CC[C@@H]4C3=O)c2)cc1`, the Ki [2] is reported as 7.76 µM, the inhibition [5] is reported as 49.9% and the pKi [3] is reported as 4.97.

With `O=S(=O)([N-]c1nc2ccccc2nc1-[n+]1ccc(Oc2ccccc2)cc1)c1ccccc1` the pKi [6] was “inactive” and the pKi [7] was “inactive”.

With `COc1cc2cc(C(=O)N3CCN(Cc4ccc5c(c4)OCO5)CC3)c(=O)oc2cc1OC` the pKi [6] was “inactive” and the pKi [7] was “inactive”.

For `O=C(c1ccc(N2C(=O)CCC2=O)cc1)N1CCN(Cc2nc(C3CC3)cs2)CC1`, the pKi [6] was “inactive” and the pKi [7] was “inactive”.

For `Nc1cc(-c2ncccc2C(=O)N2C[C@H]3CC[C@@H]2C3)c2cc[nH]c2n1`, the pKi [6] was “inactive” and the pKi [7] was “inactive”.

With `O=C(Nc1cccc(/C=C/c2ccccn2)c1)c1occc1COc1ccccc1` the Ki [2] was 7.94 µM, the inhibition [5] was 39.9% and the pKi [3] was 4.98.

With `COc1cccc(C(=O)COc2ccc3c(C)c(C)c(=O)oc3c2)c1` the pKi [6] was “inactive” and the pKi [7] was “inactive”.

In the case of `N[C@H]1CCCN(C(=O)c2cc(-c3ccccc3)nc3ccccc23)CC1`, the pKi [6] is reported as “inactive” and the pKi [7] is reported as “inactive”.

With `O=C(Oc1cccc2c(OC(=O)c3ccco3)cccc12)c1ccco1` the pKi [6] was “inactive” and the pKi [7] was “inactive”.

For `C=CCOc1cccc([C@H]2c3c(oc4ccc(C)cc4c3=O)C(=O)N2Cc2ccco2)c1`, the pKi [6] was “inactive” and the pKi [7] was “inactive”.

With `CS(=O)(=O)N1CCc2cc(S(=O)(=O)N3CCN(Cc4ccc5c(c4)OCO5)CC3)ccc21` the pKi [6] was “inactive” and the pKi [7] was “inactive”.

With `Cc1cc(=O)oc2cc(OCC(=O)c3cccc4ccccc34)ccc12` the pKi [6] was “inactive” and the pKi [7] was “inactive”.

In the case of `O=C(c1ccc(Cl)c(N2CCCC2=O)c1)N1CCN(Cc2ccc3c(c2)CCO3)CC1`, the pKi [6] is reported as “inactive” and the pKi [7] is reported as “inactive”.

With `O=C(C1CC1)N1CCC[C@@H](Cn2cc(-c3cnc(-c4ccco4)nc3)nn2)C1` the pKi [6] was “inactive” and the pKi [7] was “inactive”.

With `O=C1N(Cc2ccc(F)cc2)C[C@H]2CN(Cc3nccs3)CCN12` the pKi [6] was “inactive” and the pKi [7] was “inactive”.

With `Cc1noc(CN2CCN(C(=O)c3cc4ccccn4c3)CC2)n1` the pKi [6] was “inactive” and the pKi [7] was “inactive”.

In the case of `O=C(C1=NN([C@H]2CCS(=O)(=O)C2)C(=O)CC1)N(CCc1ccccc1)c1nc2ccccc2s1`, the IC50 [2] is reported as greater than 100 µM and the pEC50 [1] is reported as “inactive”.

For `Cc1cc(C(C)(C)C)cc(C)c1Cn1cnc2c1c(=O)n(C)c(=O)n2C`, the pKi [6] was “inactive” and the pKi [7] was “inactive”.

With `COc1cc(=O)n2c(c1C(=O)N(C)[C@@H](C)c1ccco1)CCN(C(=O)c1c(F)cccc1F)CC2` the pKi [6] was “inactive” and the pKi [7] was “inactive”.

In the case of `C[C@H](Cc1cnccn1)n1cc(-c2ccnc3ccccc23)nn1`, the pKi [6] is reported as “inactive” and the pKi [7] is reported as “inactive”.

With `CN(Cc1ccncc1)C(=O)c1ccc(COc2ccccc2C#N)o1` the pKi [6] was “inactive” and the pKi [7] was “inactive”.

For `COc1cc([C@H]2c3c(oc4ccc(Cl)cc4c3=O)C(=O)N2Cc2ccccc2)ccc1O`, the pKi [6] was “inactive” and the pKi [7] was “inactive”.

With `COc1ccc2c(c1)c1c(c(=O)n(Cc3ccccc3)c(=O)n1Cc1cc(=O)n3ccccc3n1)n2C` the pKi [6] was “inactive” and the pKi [7] was “inactive”.

With `Cc1ccc2c(c1)C(=O)N(CCC(=O)N1CCCc3ccccc31)C2=O` the pKi [6] was “inactive” and the pKi [7] was “inactive”.

For `O=C(c1cn(Cc2ccc(F)cc2)cc2c(=O)n(-c3ccccc3)nc1-2)N1CCc2ccccc21`, the pKi [6] was “inactive” and the pKi [7] was “inactive”.

`Cc1nc2cc(F)cc(C(=O)NCCOc3ccc4ccccc4c3)c2nc1C` gave an inhibition [5] of 61.7% and a pKi [3] of 5.83.

In the case of `COc1cc([C@H]2c3c(oc4ccccc4c3=O)C(=O)N2Cc2ccc(F)cc2)cc(OC)c1OC`, the pKi [6] is reported as “inactive” and the pKi [7] is reported as “inactive”.

In the case of `Cc1cccc(-n2cc(C(=O)N3CCC[C@@H]([n+]4cc[nH]c4)C3)nn2)c1`, the pKi [6] is reported as “inactive” and the pKi [7] is reported as “inactive”.

For `O=C(OCC(=O)N1N=C(c2ccc(Cl)cc2)C[C@H]1c1ccco1)c1ccc(-n2cccn2)nc1`, the pKi [6] was “inactive” and the pKi [7] was “inactive”.

For `COc1ccc([C@H]2CCCN2C(=O)c2ccc(OCc3cn4ccccc4n3)cc2)c(OC)c1`, the Ki [2] was 20.9 µM and the pEC50 [1] was “inactive”.

With `O=C(c1ccccc1Cc1ccccc1)N1CCN(Cc2csc(-c3ccco3)n2)CC1` the Ki [2] was 14.8 µM and the pEC50 [1] was “inactive”.

For `CCCN1C(C)=NS(=O)(=O)c2cc(C(=O)N3CCN(Cc4ccccc4)CC3)ccc21`, the pKi [6] was “inactive” and the pKi [7] was “inactive”.

With `O=C1NC(=O)C(=Cc2c(OCc3ccccc3F)ccc3ccccc23)C(=O)N1` the pEC50 [1] was “inactive”.

With `O=C(OCCCn1c(=O)[nH]c2ccccc21)c1ccc2c(c1)C(=O)N(c1ccc(Cl)cc1)C2=O` the pKi [6] was “inactive” and the pKi [7] was “inactive”.

In the case of `O=C(CCc1nc(-c2ccccn2)no1)OCc1ccccn1`, the pKi [6] is reported as “inactive” and the pKi [7] is reported as “inactive”.

With `COc1ccc(-n2nc(C(=O)NCCc3ccc(Cl)cc3)c3c4ccccc4n(C)c3c2=O)cc1` the pKi [6] was “inactive” and the pKi [7] was “inactive”.

With `O=C(c1ccc(-c2nc3ccccc3s2)o1)N(Cc1ccco1)Cc1ccco1` the Ki [2] was 3.55 µM, the pKi [3] was 5.5 and the pEC50 [1] was “inactive”. The pEC50 [4] was “inactive”.

In the case of `O=C(c1ccc(Cl)c(N2CCCC2=O)c1)N1CCN(Cc2cc(=O)n3ccsc3n2)CC1`, the pKi [6] is reported as “inactive” and the pKi [7] is reported as “inactive”.

With `CCOc1ccc(-c2n[nH]c3c2[C@H](c2ccccc2OC)NC3=O)cc1` the pKi [6] was “inactive” and the pKi [7] was “inactive”.

For `Cc1nn(-c2ccccc2)c(C)c1C(=O)O[C@@H](C(N)=O)c1ccccc1`, the pKi [6] was “inactive” and the pKi [7] was “inactive”.

For `Cc1ccc(C)c(OCC(=O)Oc2ccc3c(C)cc(=O)oc3c2)c1`, the pKi [6] was “inactive” and the pKi [7] was “inactive”.

With `Cc1ccc2[nH]c(C)c(CC(=O)N(Cc3cccnc3)C3CC3)c2c1` the pEC50 [1] was “inactive” and the pEC50 [4] was “inactive”.

For `Cc1ccc(-c2nc(CC(=O)N(C)[C@@H](C)c3ccc(F)cc3)cs2)o1`, the Ki [2] was 17 µM, the pKi [3] was 5.53 and the pEC50 [1] was “inactive”. The pEC50 [4] was “inactive”.

For `O=C(COc1ccc(-c2ccccc2)cc1)c1ccc(O)cc1O`, the pKi [6] was “inactive”, the pKi [7] was “inactive” and the pEC50 [1] was “inactive”.

For `COc1ccc(CN2C(=O)c3ccccc3C2=O)cc1C(=O)OCc1cc(=O)n2ccsc2n1`, the pKi [6] was “inactive” and the pKi [7] was “inactive”.

In the case of `O=C(CCCn1cnc2ccccc2c1=O)NCc1ccccn1`, the pKi [6] is reported as “inactive” and the pKi [7] is reported as “inactive”.

In the case of `Cc1ccccc1CN(C)C(=O)Cc1csc(-c2cccc(F)c2)n1`, the Ki [2] is reported as 3.24 µM, the pKi [3] is reported as 6.18 and the pEC50 [1] is reported as “inactive”. For the same molecule, the pEC50 [4] was “inactive”.

With `Cc1ccc(C(=O)Oc2ccc(N3C(=O)[C@H]4C5C=CC(C6CC65)[C@@H]4C3=O)cc2)cc1` (stereo not given in full) the pKi [6] was “inactive” and the pKi [7] was “inactive”.

For `Cc1[nH]c2ccccc2c1[C@@H]1c2ccccc2C(=O)N1CCC(=O)N1CCN(c2ccccn2)CC1`, the IC50 [2] was greater than 100 µM and the pEC50 [1] was “inactive”.

In the case of `CCc1cc2c(=O)c(-c3ccc4c(c3)OCCCO4)coc2cc1OC(=O)N1CCOCC1`, the pKi [6] is reported as “inactive” and the pKi [7] is reported as “inactive”.

For `CCc1c(C)c2ccc(OCC(=O)c3ccc(F)cc3)cc2oc1=O`, the pKi [6] was “inactive” and the pKi [7] was “inactive”.

For `COc1cccc([C@H]2c3c(oc4ccccc4c3=O)C(=O)N2Cc2ccccc2)c1`, the pKi [6] was “inactive” and the pKi [7] was “inactive”.

With `Cn1ccc2c(C(=O)N3CCN(Cc4cscn4)CC3)cccc21` the pKi [6] was “inactive” and the pKi [7] was “inactive”.

`Cc1ccc(Oc2ncccc2NC(=O)c2ccc3c(c2)OCCCO3)c2c1CCC2` gave a Ki [2] of 5.13 µM, an inhibition [5] of 67.1% and a pKi [3] of 5.19.
